Laboratory results reported in patent publication US11389423B2, “Pharmaceutical composition, excipient for the composition and use of the composition” (priority 2018, dated 2022).

How the values were obtained:
Format in all cases: in vivo, New Zealand rabbits
[1] = tested on: male rabbits; experiment: Arterial blood gas analysis; details: male rabbits, 17, 51 and 170 mg/kg by gavage
Protocol: (§1) Male New Zealand rabbits (n=6 per group) were used for pharmacological safety tests. All tests were performed orally (route recommended for humans) and the investigated parameters were determined after a single administration of CBD-SINT. CBD-SINT doses were determined by allometric extrapolation from the average dose used in human patients (25 mg/kg).
(§2) The dose of 51 mg/kg was used as the intermediate dose, stipulating a higher and a lower dose. Three dose ranges were used according to the Guide for Conducting Non-Clinical Toxicology and Pharmacological Safety Studies Necessary for Drug Development (ANVISA, 2013; Version 1.2). Thus, the doses used were 17, 51 and 170 mg/kg of CBD-SINT.
After 6-h fasting, three doses of CBD-SINT (17, 51 and 170 mg/kg) were administered to different groups of male rabbits by gavage. […] The respiratory rate was determined using a Kofranyi-Michaelis respirometer (Murphy, 2002). […] All parameters below were determined on a Cobas b 221 multiparametric blood gas analyzer (Roche Diagnostics, Rotkreuz, Switzerland): pH, PCO2 (mm Hg), PO2 (mm Hg), SO2(%), Htc (%), tHb (g/dL), Na+ (mmol/L), K+ (mmol/L), Ca2+ (mmol/L), Cl− (mmol/L), glucose (mg/dL), lactate (mmol/L), O2Hb (%), HHb (%), P50 (mm Hg), H+ (nmol/L), BE (nmol/L), BEecf (nmol/L), BB (mmol/L), cHCO3 (mmol/L), ctCO2 (B) (mmol/L), ctCO2 (P) (mmol/L) and ctO2 (% by volume).

[2] = tested on: male rabbits; experiment: Electrocardiography; details: male rabbits, 17, 51 and 170 mg/kg by gavage, one hour after treatment
Protocol: as §1, §2
a) Electrocardiography, wherein after a 6-h fasting, three doses of CBD (17, 51 and 170 mg/kg) were administered to different groups of male rabbits by gavage. Placebo was administered to the control group (1 mL/kg). One hour after treatments, all rabbits remained conscious in the supine position. Four electrodes (RL, RA, LL, and LA) were placed in the folds of both elbows and both knees. The V1 electrode was positioned in the 4th intercostal space to the right of the sternum. […] An acclimatization time of 5 min was waited, and then the cardiographic electric waves were recorded for 5 min. The electrocardiography was recorded with an ECG recorder (WinCardio, Micromed, Brasilia, Brazil).

[3] = tested on: male rabbits; experiment: Blood pressure measurement and heart rate; details: for heart rate: anesthetized male rabbits
Protocol: as §1, §2
b) Blood pressure measurement, after a 6-h fasting, three doses of CBD-SINT (17, 51 and 170 mg/kg) were administered to different groups of male rabbits by gavage. Placebo was administered to the control group (1 mL/kg). 40 minutes after treatments all rabbits were anesthetized with 10 mg/kg diazepam intramuscularly combined with 115 mg/kg ketamine. Then, the animals received a bolus injection of heparin (50 IU) subcutaneously. Tracheostomy was performed to allow animals to breathe spontaneously. Then, the left carotid artery was isolated, cannulated, and connected to a pressure transducer coupled to a PowerLab recording system (Chart 5.0, ADI Instruments, Castle Hill, Australia). After 15 minutes for hemodynamic stabilization, systolic blood pressure (SBP), diastolic blood pressure (DBP) and mean arterial pressure (MAP) were recorded for another 20 min.

With `C=C(C)[C@@H]1CCC(C)=C[C@H]1c1c(O)cc(CCCCC)cc1O` [CBD-SINT, Cannabidiol] the “arterial blood gases, electrolytes and metabolites (pH, PCO2, PO2, SO2, Htc, tHb, Na+, K+, Ca2+, Cl-, glucose, lactate, O2Hb, HHb, P50, H+, BE, BEecf, BB, cHCO3, ctCO2, ctO2) vs placebo” value [1] was “none of the CBD-SINT doses changed”, the “PR, QRS or QT segments” value [2] was “no significant changes” and the “amplitudes of P, R or T waves vs placebo” value [2] was “no changes”. The heart rate ([3]; 17 mg/kg oral) was 285±18 bpm, the heart rate ([3]; 51 mg/kg oral) was 279±20 bpm and the heart rate ([3]; 170 mg/kg oral) was 275±17 bpm. For the same compound, the “blood pressure levels (systolic, diastolic, mean arterial) compared to the control group” value ([3]; anesthetized male rabbits, 17, 51 or 170 mg/kg oral) was “did not significantly change”.
